Laboratory results as given in patent US20130202586A1, “STEM CELL THERAPY USING INHIBITORS OF LYSOPHOSPHATIDIC ACID” (priority 2011, published 2013).

Key:
[1] = system: noggin-treated cells (human NSC); experiment: Neurosphere formation from noggin-treated human embryonic stem cells; type: cell-based; settings: 5-7 days
Protocol: (§1) Neurospheres were formed and cultured as described in Dottori, M. et al. (2008), supra. Briefly, human embryonic stem cells (HES-2, HES-3, and HES-4, WiCell Research Institute, Madison Wis.) were cultured according to previously published methods. Neuronal induction using noggin was performed according to published methods and after growth and subculture, cells were grown as neurospheres in the presence of growth factors. Neurospheres could be plated on dishes coated with laminin or fibronectin. When plated onto laminin and cultured with neural basal medium (NBM, R&D Systems, Minneapolis Minn.), neurospheres typically differentiate into neurons. Quantitation of neuron-forming spheres (a measure of neuronal differentiation) was done by counting the number of neurospheres from which neuronal outgrowth was visible.
Plated neurospheres were incubated in the presence or absence of LPA (Sigma Aldrich, St. Louis, Mo.) and/or antibody (concentrations shown) for 5 days. Dilutions of LPA were made in 0.1% fatty acid-free bovine serum albumin (final concentration 0.01% BSA).
As shown by Dottori et al., LPA inhibits the ability of NSC to form neurospheres, even in the presence of bFGF and EGF. […] […] Dottori, M. et al. (2008), supra. […]

adult mouse NSC = experiment: Neuronal differentiation of adult mouse NSC; type: cell-based
Description: However, and similarly to data obtained in human NSC, LPA inhibited the neuronal differentiation of adult mouse NSC by maintaining them as NSC when plated in conditions normally inducing neuronal differentiation. […] These effects were independent of apoptosis or proliferation.

[2] = system: plated neurospheres (human NSC); experiment: Neuronal differentiation: neuron-forming neurospheres; type: cell-based
Protocol: as §1
[…] […] Dilutions of LPA were made in 0.1% fatty acid-free bovine serum albumin (final concentration 0.01% BSA).
The effect of LPA on an additional differentiation step, the differentiation of NSC toward mature cells, was also measured. When plated on laminin in NBM, neurospheres typically differentiate into neurons, as assayed by visible neurons, elongated cell shape and/or positive staining for β-tubulin.
Using the same conditions used in Example 2 for LPA treatment alone, plated neurospheres were treated with 10 μM LPA alone, or with anti-LPA antibody B3 or B7 (1 mg/ml) alone, or with 10 μM LPA in combination with 1 mg/ml of antibody B3 or B7. Similarly, cells were treated with 10 μM LPA alone, humanized anti-LPA antibody LT3015 alone (1 mg/ml) or with 10 μM LPA in combination with 1 mg/ml LT3015. The percent of neuron-forming neurospheres was quantitated as in Example 2 (beta-tubulin staining and quantification of neuron-forming spheres, as described in Dottori, et al (2008)). […] Neurosphere samples treated with B3 antibody alone had neuron-forming neurospheres equivalent to control (100%). […] The antibody B7, under similar conditions, had little to no effect in this experiment (37.00±5.31% of control). […]

[3] = system: noggin-treated cells (human NSC); settings: 10 μM LPA, 11-14 days, Dottori et al.; cited from earlier work
[4] = system: plated neurospheres (human NSC); settings: 10 μM LPA, Dottori et al.; cited from earlier work

## lysophosphatidic acid [LPA]
[1]; 10 μM LPA
  % neurosphere formation: 13.500±5.590%
[1]; LPA at 1 μM
  % neurosphere formation: 50±12.50%
Adult mouse NSC
  neurosphere formation or growth of mouse NSC: did not modify neurosphere formation or growth
Adult mouse NSC; LPA 10 μM, three days
  nestin positive, % of total cells: 87.55±3.20%
  βIII-tubulin expression, % of total cells: 26.25±2.08%
[2]; Example 4, 10 μM LPA alone
  neuron-forming neurospheres, % of untreated control: approximately 25.00±6.45%
[2]; Example 5, 3 days, 10 μM LPA alone
  neuron-forming spheres, % of control: approximately 26%
[2]; LPA alone
  neuron-forming neurospheres, pool of data: 25.00±6.45%
[3]
  % of cultures formed neurospheres: 13.47%±6.94
[4]
  neuronal cells from plated neurospheres: did not give rise to neuronal cells
